By IC50 is commonly meant the concentration that gives 50% inhibition.

This is an account of results in patent US20240360082A1, “SUBSTITUTED PYRIDONE COMPOUNDS USEFUL TO TREAT ORTH[…]” (priority 2021, published 2024).

Sequence of influenza A virus minigenome (PB2, PB1, PA, NP proteins) (P04665 whole entry): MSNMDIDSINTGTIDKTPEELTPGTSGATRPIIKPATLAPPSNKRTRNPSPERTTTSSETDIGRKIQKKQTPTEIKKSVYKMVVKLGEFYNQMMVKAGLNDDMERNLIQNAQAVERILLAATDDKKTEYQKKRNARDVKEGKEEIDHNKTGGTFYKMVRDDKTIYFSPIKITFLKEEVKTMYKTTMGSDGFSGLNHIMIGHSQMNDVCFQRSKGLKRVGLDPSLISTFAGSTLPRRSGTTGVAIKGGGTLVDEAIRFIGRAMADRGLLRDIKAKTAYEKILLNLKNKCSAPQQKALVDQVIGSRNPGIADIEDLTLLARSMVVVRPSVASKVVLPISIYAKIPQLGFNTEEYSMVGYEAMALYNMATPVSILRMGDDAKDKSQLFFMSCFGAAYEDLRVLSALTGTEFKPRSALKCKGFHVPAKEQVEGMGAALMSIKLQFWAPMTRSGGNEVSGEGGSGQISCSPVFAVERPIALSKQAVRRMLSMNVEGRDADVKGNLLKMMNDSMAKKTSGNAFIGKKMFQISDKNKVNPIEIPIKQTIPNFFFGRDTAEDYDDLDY

The assay has as its target influenza A virus minigenome (PB2, PB1, PA, NP proteins) (UniProt P04665). Type of assay: cell-based. The following applies: read-out: RNP_ Hubei B IC50.
As for `NC(=O)c1cc(-c2ccc(OCCN3CCOC3=O)cc2)c(C(F)(F)F)[nH]c1=O` [Example 257, 2-oxo-5-(4-(2-(2-oxooxazolidin-3-yl)ethoxy)phenyl)-6-(trifluoromethyl)-1,2-dihydropyridine-3-carboxamide], the IC50 lay in the range of 25 to 50 µM.

`CCc1cc(COc2ccc(-c3cc(C(N)=O)c(=O)[nH]c3C(F)(F)F)cc2)n(C)n1` [Example 262, 5-(4-((3-ethyl-1-methyl-1H-pyrazol-5-yl)methoxy)phenyl)-2-oxo-6-(trifluoromethyl)-1,2-dihydropyridine-3-carboxamide]: the IC50 lay in the range of 25 to 50 µM.

On to `Cn1nc(C2CC2)cc1COc1ccc(-c2cc(C(N)=O)c(=O)[nH]c2C(F)(F)F)cc1` [Example 263, 5-(4-((3-cyclopropyl-1-methyl-1H-pyrazol-5-yl)methoxy)phenyl)-2-oxo-6-(trifluoromethyl)-1,2-dihydropyridine-3-carboxamide], for which the IC50 lay within 25 to 50 µM.

Regarding `NC(=O)c1cc(-c2ccc(OCc3ccnn3CC3CC3)cc2)c(C(F)(F)F)[nH]c1=O` [Example 265, 5-(4-((1-(cyclopropylmethyl)-1H-pyrazol-5-yl)methoxy)phenyl)-2-oxo-6-(trifluoromethyl)-1,2-dihydropyridine-3-carboxamide], the IC50 was in the range of 25 to 50 µM.

On to `NC(=O)c1cc(-c2ccc(OCc3cocn3)cc2)c(C(F)(F)F)[nH]c1=O` [Example 266, 5-(4-(oxazol-4-ylmethoxy)phenyl)-2-oxo-6-(trifluoromethyl)-1,2-dihydropyridine-3-carboxamide], for which the IC50 lay in the range of 25 to 50 µM.

`NC(=O)c1cc(-c2ccc(OCc3cnco3)cc2)c(C(F)(F)F)[nH]c1=O` [Example 267, 5-(4-(oxazol-5-ylmethoxy)phenyl)-2-oxo-6-(trifluoromethyl)-1,2-dihydropyridine-3-carboxamide]: the IC50 was in the range of 25 to 50 µM.

As for `NC(=O)c1cc(-c2ccc(OCc3cc(C4CC4)on3)cc2)c(C(F)(F)F)[nH]c1=O` [Example 268, 5-(4-((5-cyclopropylisoxazol-3-yl)methoxy)phenyl)-2-oxo-6-(trifluoromethyl)-1,2-dihydropyridine-3-carboxamide], the 50% inhibitory concentration (IC50) was in the range of 25 to 50 µM.

Turning to `Cc1oncc1COc1ccc(-c2cc(C(N)=O)c(=O)[nH]c2C(F)(F)F)cc1` [Example 269, 5-(4-((5-methylisoxazol-4-yl)methoxy)phenyl)-2-oxo-6-(trifluoromethyl)-1,2-dihydropyridine-3-carboxamide], the IC50 was in the range of 25 to 50 µM.

As for `Cc1onc(-c2ccncc2)c1COc1ccc(-c2cc(C(N)=O)c(=O)[nH]c2C(F)(F)F)cc1` [Example 270, 5-(4-((5-methyl-3-(pyridin-4-yl)isoxazol-4-yl)methoxy)phenyl)-2-oxo-6-(trifluoromethyl)-1,2-dihydropyridine-3-carboxamide], the IC50 is 25 to 50 µM.

With `Cc1ncc(COc2ccc(-c3cc(C(N)=O)c(=O)[nH]c3C(F)(F)F)cc2)s1` [Example 271, 5-(4-((2-methylthiazol-5-yl)methoxy)phenyl)-2-oxo-6-(trifluoromethyl)-1,2-dihydropyridine-3-carboxamide], the IC50 lay in the range of 25 to 50 µM.

Take `Cc1ncsc1COc1ccc(-c2cc(C(N)=O)c(=O)[nH]c2C(F)(F)F)cc1` [Example 272, 5-(4-((4-methylthiazol-5-yl)methoxy)phenyl)-2-oxo-6-(trifluoromethyl)-1,2-dihydropyridine-3-carboxamide]: the IC50 was 25 to 50 µM.

For `Cc1nnsc1COc1ccc(-c2cc(C(N)=O)c(=O)[nH]c2C(F)(F)F)cc1` [Example 273, 5-(4-((4-methyl-1,2,3-thiadiazol-5-yl)methoxy)phenyl)-2-oxo-6-(trifluoromethyl)-1,2-dihydropyridine-3-carboxamide], the IC50 was 10 to 25 µM.

`Cc1cncc(COc2ccc(-c3cc(C(N)=O)c(=O)[nH]c3C(F)(F)F)cc2)n1` [Example 283, 5-(4-((6-methylpyrazin-2-yl)methoxy)phenyl)-2-oxo-6-(trifluoromethyl)-1,2-dihydropyridine-3-carboxamide]: the IC50 was in the range of 5 to 10 µM.

As for `NC(=O)c1cc(-c2ccc(OCc3cnc4ccccn34)cc2)c(C(F)(F)F)[nH]c1=O` [Example 286, 5-(4-(imidazo[1,2-a]pyridin-3-ylmethoxy)phenyl)-2-oxo-6-(trifluoromethyl)-1,2-dihydropyridine-3-carboxamide], the IC50 was in the range of 25 to 50 µM.

As for `CC1(C)CC[C@@H](COc2ccc(-c3cc(C(N)=O)c(=O)[nH]c3C(F)(F)F)cc2)O1` [Example 300, (S)-5-(4-((5,5-dimethyltetrahydrofuran-2-yl)methoxy)phenyl)-2-oxo-6-(trifluoromethyl)-1,2-dihydropyridine-3-carboxamide], the IC50 lay in the range of 10 to 25 µM.

As for `CC(C)(C)OC(=O)N1CCC(COc2ccc(-c3cc(C(N)=O)c(=O)[nH]c3C(F)(F)F)cc2)C1` (stereo not shown) [Example 302, Tert-butyl 3-((4-(5-carbamoyl-6-oxo-2-(trifluoromethyl)-1,6-dihydropyridin-3-yl)phenoxy)methyl)pyrrolidine-1-carboxylate], the half-inhibitory concentration (IC50) is 25 to 50 µM.

As to `CC1CN(C(=O)OC(C)(C)C)CC1COc1ccc(-c2cc(C(N)=O)c(=O)[nH]c2C(F)(F)F)cc1` (stereo not shown) [Example 303, Tert-butyl 3-((4-(5-carbamoyl-6-oxo-2-(trifluoromethyl)-1,6-dihydropyridin-3-yl)phenoxy)methyl)-4-methylpyrrolidine-1-carboxylate], the IC50 was in the range of 10 to 25 µM.

As for `CC(C)(C)OC(=O)N1C[C@H](F)C[C@H]1COc1ccc(-c2cc(C(N)=O)c(=O)[nH]c2C(F)(F)F)cc1` [Example 305, Tert-butyl (2S,4R)-2-((4-(5-carbamoyl-6-oxo-2-(trifluoromethyl)-1,6-dihydropyridin-3-yl)phenoxy)methyl)-4-fluoropyrrolidine-1-carboxylate], the IC50 was 25 to 50 µM.

In the case of `CC(C)(C)OC(=O)N1C[C@@H](F)C[C@H]1COc1ccc(-c2cc(C(N)=O)c(=O)[nH]c2C(F)(F)F)cc1` [Example 306, tert-butyl (2S,4S)-2-((4-(5-carbamoyl-6-oxo-2-(trifluoromethyl)-1,6-dihydropyridin-3-yl)phenoxy)methyl)-4-fluoropyrrolidine-1-carboxylate], the IC50 lay within 5 to 10 µM.

On to `NC(=O)c1cc(-c2ccc(OCC3COCCOC3)cc2)c(C(F)(F)F)[nH]c1=O` [Example 320, 5-(4-((1,4-dioxepan-6-yl)methoxy)phenyl)-2-oxo-6-(trifluoromethyl)-1,2-dihydropyridine-3-carboxamide], for which the IC50 lay in the range of 5 to 10 µM.

Regarding `CC1(COc2ccc(-c3cc(C(N)=O)c(=O)[nH]c3C(F)(F)F)cc2)COCCOC1` [Example 321, 5-(4-((6-methyl-1,4-dioxepan-6-yl)methoxy)phenyl)-2-oxo-6-(trifluoromethyl)-1,2-dihydropyridine-3-carboxamide], the IC50 was in the range of 5 to 10 µM.

`NC(=O)c1cc(-c2ccc(OC[C@H]3COC[C@@H](C4CC4)O3)cc2)c(C(F)(F)F)[nH]c1=O` [Example 325, 5-(4-(((2R,6R)-6-cyclopropyl-1,4-dioxan-2-yl)methoxy)phenyl)-2-oxo-6-(trifluoromethyl)-1,2-dihydropyridine-3-carboxamide]: the IC50 was in the range of 10 to 25 µM.

With `NC(=O)c1cc(-c2ccc(OC[C@H]3COC[C@H](C4CC4)O3)cc2)c(C(F)(F)F)[nH]c1=O` [Example 327, 5-(4-(((2R,6S)-6-cyclopropyl-1,4-dioxan-2-yl)methoxy)phenyl)-2-oxo-6-(trifluoromethyl)-1,2-dihydropyridine-3-carboxamide], the IC50 was in the range of 5 to 10 µM.

For `C[C@@H]1COC[C@H](COc2ccc(-c3cc(C(N)=O)c(=O)[nH]c3C(F)(F)F)cc2)O1` [Example 328, 5-(4-(((2R,6R)-6-methyl-1,4-dioxan-2-yl)methoxy)phenyl)-2-oxo-6-(trifluoromethyl)-1,2-dihydropyridine-3-carboxamide], the IC50 lay in the range of 10 to 25 µM.

For the compound `C[C@@H]1COC[C@@H](COc2ccc(-c3cc(C(N)=O)c(=O)[nH]c3C(F)(F)F)cc2)O1` [Example 329, 5-(4-(((2S,6R)-6-methyl-1,4-dioxan-2-yl)methoxy)phenyl)-2-oxo-6-(trifluoromethyl)-1,2-dihydropyridine-3-carboxamide], the 50% inhibitory concentration (IC50) lay in the range of 25 to 50 µM.

For the compound `C[C@H]1COC[C@@H](COc2ccc(-c3cc(C(N)=O)c(=O)[nH]c3C(F)(F)F)cc2)O1` [Example 330, 5-(4-(((2S,6S)-6-methyl-1,4-dioxan-2-yl)methoxy)phenyl)-2-oxo-6-(trifluoromethyl)-1,2-dihydropyridine-3-carboxamide], the IC50 fell in the range of 25 to 50 µM.

With `C[C@H]1COC[C@H](COc2ccc(-c3cc(C(N)=O)c(=O)[nH]c3C(F)(F)F)cc2)O1` [Example 331, 5-(4-(((2R,6S)-6-methyl-1,4-dioxan-2-yl)methoxy)phenyl)-2-oxo-6-(trifluoromethyl)-1,2-dihydropyridine-3-carboxamide], the IC50 was 10 to 25 µM.

Consider `NC(=O)c1cc(-c2ccc(OCC3COCc4c(C5CC5)nnn43)cc2)c(C(F)(F)F)[nH]c1=O` (stereo not shown) [Example 381, 5-(4-((3-cyclopropyl-6,7-dihydro-4H-[1,2,3]triazolo[5,1-c][1,4]oxazin-7-yl)methoxy)phenyl)-2-oxo-6-(trifluoromethyl)-1,2-dihydropyridine-3-carboxamide], for which the IC50 is 5 to 10 µM.

Turning to `COC(C)(C)C1COCC(COc2ccc(-c3cc(C(N)=O)c(=O)[nH]c3C(F)(F)F)cc2)O1` (stereo not shown) [Example 382, 5-(4-((6-(2-methoxypropan-2-yl)-1,4-dioxan-2-yl)methoxy)phenyl)-2-oxo-6-(trifluoromethyl)-1,2-dihydropyridine-3-carboxamide], the IC50 is 5 to 10 µM.

Take `NC(=O)c1cc(-c2ccc(OCC3COCC(CO)O3)cc2)c(C(F)(F)F)[nH]c1=O` (stereo not shown) [Example 384, 5-(4-((6-(hydroxymethyl)-1,4-dioxan-2-yl)methoxy)phenyl)-2-oxo-6-(trifluoromethyl)-1,2-dihydropyridine-3-carboxamide]: the 50% inhibitory concentration (IC50) was in the range of 5 to 10 µM.

As to `NC(=O)c1cc(-c2ccc(OCC3(F)COCCO3)cc2)c(C(F)(F)F)[nH]c1=O` (stereo not shown) [Example 388, 5-(4-((2-fluoro-1,4-dioxan-2-yl)methoxy)phenyl)-2-oxo-6-(trifluoromethyl)-1,2-dihydropyridine-3-carboxamide], the 50% inhibitory concentration (IC50) fell in the range of 5 to 10 µM.
